{"source": "patent US20010025105A1", "about": "“Certain substituted 1-aryl-3-piperazine-1'-yl propanones” (Molecular Geriatarics Corporation, priority 1997, published 2001)", "key": {"[1]": {"tested_on": "TG3 immunoreactivity in OKA treated MSN1a cells", "experiment": "MSN1a cell culture model, ELISA with TG3 antibody, okadaic acid treated cells", "assay_type": "cell-based, human", "settings": "1 μM OKA, 2 hrs at 37° C., read-out: IC50 for inhibition of TG3 immunoreactivity in OKA treated MSN1a cells", "how_it_was_run": "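Human MSN1a neuroblastoma cells (2×10^4/well) in KRH pH 7.4 were exposed 2 h at 37 °C to 1 μM okadaic acid plus 0–64 μM compound (0.26% DMSO final). Lysates were coated onto ELISA plates and probed with TG3 and an alkaline phosphatase secondary. Absorbance was read at 405 nm with p-nitrophenyl phosphate substrate.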"}, "[2]": {"tested_on": "Streptococcus pneumoniae SRI 1167", "experiment": "Agar disc diffusion assay", "assay_type": "cell-based", "settings": "240 ug/disc, about 24 hr at 37° C.; + = zone too large to measure", "experimental": "(§1) The activity of the compounds is determined using the following assay. The compound is dissolved in DMSO at a concentration of 6 mg/ml and then diluted with water to a final concentration of 3 mg/ml in 50% DMSO (% DMSO was shown not to be inhibitory to the test organisms). An aliquot (0.08 ml) of each drug solution was transferred to filter paper discs (12.7 mm diameter, Scmeicherand Schuell) for use in the agar diffusion assay. The concentration of each drug on the filter paper disc was 240 ug/disc. The test organisms included the following: Gram-positive aerobes (Staphylococcus aureus SRI 1323, Streptococcus pneumoniae SRI 1167); Gram-negative aerobe (Proteus vulgaris SRI 180); and the yeast Candida albicans SRI 523. An agar disc diffusion assay was used to evaluate the antimicrobial activity of the test compounds. Briefly, cultures were prepared from 16-20 hr agar slant cultures by inoculating in physiological saline to a turbidity equivalent to a #0.5 McFarland turbidity standard for the bacteria and a #3 McFarland standard for C. albicans. The surface of Mueller-Hinton agar (15×100 mm plates, mm) were evenly inoculated with each standardized culture using a cotton swab. Filter paper discs containing the drug concentration listed above were then placed on the inoculated agar plates along with a disc containing the solvent used to dissolve each drug. The plates were incubated at 37° C. for about 24 hr and the diameters of the zones of inhibition measured with a vernier caliper. Positive control drugs consisted of streptomycin for use with the bacterial strains and 5-fluorocytosine for use with C. albicans. The positive control drugs were assayed as described above for the compounds of the present invention using the same concentration."}, "[3]": {"tested_on": "Proteus vulgaris SRI 180", "experiment": "Agar disc diffusion assay", "assay_type": "cell-based", "settings": "240 ug/disc, about 24 hr at 37° C.; 0 = no measurable zone", "experimental": "as §1"}, "[4]": {"tested_on": "Candida albicans SRI 523", "experiment": "Agar disc diffusion assay", "assay_type": "cell-based", "settings": "240 ug/disc, about 24 hr at 37° C.", "experimental": "as §1"}, "[5]": {"tested_on": "Staphylococcus aureus SRI 1323", "experiment": "Agar disc diffusion assay", "assay_type": "cell-based", "settings": "240 ug/disc, about 24 hr at 37° C.", "experimental": "as §1"}}}
{"smiles": "Cl.Cl.O=C(CCN1CCN(Cc2ccccc2)CC1)c1ccc(F)c2ccccc12", "note": "[Example 21, 1-(4″-Fluoronaphth-1″-yl)-3-(4′-benzyl-1′-piperazinyl)-1-propanone dihydrochloride]", "values": [{"measurement": "IC50", "setting": "[1]", "value": 6.6, "unit": "µM"}, {"measurement": "Diameter of the zone of inhibition, S. pneumoniae", "setting": "[2]", "value": 40.7, "unit": "mm"}, {"measurement": "Diameter of the zone of inhibition, P. vulgaris", "setting": "[3]", "value": "0^1 mm"}, {"measurement": "Diameter of the zone of inhibition, C. albicans", "setting": "[4]", "value": 26.6, "unit": "mm"}, {"measurement": "Diameter of the zone of inhibition, S. aureus", "setting": "[5]", "value": 33.8, "unit": "mm"}]}
